Source: ChEMBL document CHEMBL1157539, “Thousands of chemical starting points for antimalarial lead identification” (Nature, 2010)

System: Plasmodium falciparum
Assay: GSK_TCMDC: Inhibition of Plasmodium falciparum 3D7 in whole erythrocytes, using parasite LDH activity as an index of growth.
Type: functional, organism-based
Conditions: Plasmodium falciparum, 3D7

SMILES | XC50
Cc1cc(N/N=C/c2ccccc2[N+](=O)[O-])c2cc(F)ccc2n1 | 665 nM
Cc1ccc2nc(C)cc(N/N=C/c3ccc([N+](=O)[O-])o3)c2c1 | 751 nM
CCN(CC)CCN(Cc1ccc(-c2ccc(Br)cc2)cc1)C(=O)Cn1c(CCc2cccc(F)c2F)nc(=O)c2ccccc21 | 788 nM
O=C(/C=C/c1ccc(Cl)cc1)NCCCCCN1CCC(c2c[nH]c3ccccc23)CC1 | 838 nM
Cc1ccccc1CNCC(O)c1cccc(C(F)(F)F)c1 (stereo not given) | 881 nM
O=C(/C=C/c1ccc(Cl)c(Cl)c1)NCCCCCN1CCC(c2c[nH]c3ccc(O)cc23)CC1 | 886 nM
COc1ccc(CCNCCCCCCNCCc2ccccc2Cl)cc1OC | 657 nM
O=C(Nc1cccc(OC2CCN(Cc3ccccc3)CC2)c1)c1ccc([N+](=O)[O-])cc1 | 661 nM
Cn1c(NC(=O)c2ccc(CNC(=O)c3ccc(O)c(-c4ccc(Cl)c(Cl)c4)c3)cc2)nc2ccccc21 | 842 nM
COc1ccc2nc(N3CCN(C(=O)OC(C)(C)C)CC3)nc(NCCCc3ccccc3)c2c1 | 687 nM
Oc1ccc(CCNc2nc(NCc3ccccc3-c3ccc(C(F)(F)F)cc3)nc(N3CCCNCC3)n2)cc1 | 866 nM
CCc1cc(CNC2CCN(CCc3c(F)cnc4ccc(OC)nc34)CC2)cc2c1OCCO2 | 264 nM
CCN(CC)CCCCOc1ccc2c(c1)C(=O)c1cc(OCCCCN(CC)CC)ccc1-2 | 759 nM
O=C(/C=C/c1ccc([N+](=O)[O-])cc1)N1CCC(NS(=O)(=O)c2ccc(F)cc2)CC1 | 824 nM
CCCCOP(=O)(COc1ccc(CCN(CC(O)COc2cccc3[nH]c4ccccc4c23)CC(O)COc2cccc3[nH]c4ccccc4c23)cc1)C1CCCCC1 (stereo not given) | 939 nM
O=C(Nc1ccc(-c2nc3ccccc3[nH]2)cc1)c1cccc(S(=O)(=O)N2CCOCC2)c1 | 902 nM
NC1=NC(c2ccccc2)(c2ccccc2)C(=O)N1Cc1ccc(-c2ccncc2)cc1 | 772 nM
COc1ccc2nc3cc(Cl)ccc3c(Nc3ccc(Oc4ccc(Nc5c6ccc(Cl)cc6nc6ccc(OC)cc56)cc4)cc3)c2c1 | 859 nM
Cc1cc2nc(-c3ccc(C(=O)NCc4cccc(C(F)(F)F)c4)cc3)[nH]c2cc1C | 807 nM
CC1(C)N=C(N)N=C(N)N1OCCc1ccc2ccccc2c1 | 3.2 nM
CC(Cc1ccc(C(C)(C)C)cc1)NCC(O)c1ccccc1 (stereo not given) | 1810 nM
CN(CCO)Cc1cccc(-c2ccc(NC(=O)c3cccc(C#N)c3)cc2)c1 | 796 nM
CC(C)NCc1cccc(-c2ccc(-c3nc4cc(C(F)(F)F)ccc4[nH]3)cc2)c1 | 193 nM
O=C(Nc1ccc(-c2nc3ccc(NC(=O)c4ccc(Br)cc4)cc3[nH]2)cc1)c1ccc(Br)cc1 | 786 nM

SMILES | XC50
O=C(/C=C/c1ccc(Cl)c(Cl)c1)NC1CCC(CN2CCC(Cc3cc4ccccc4[nH]3)CC2)CC1 (stereo not given) | 508 nM
O=C(c1cccc(-c2noc(C(F)(F)F)n2)c1)N1CCN(c2ccncc2)CC1 | 233 nM
Cc1ccc(C(=O)Nc2ccc(F)c(F)c2F)cc1S(=O)(=O)N1CCCCC1 | 763 nM
Nc1nc(N)c2c3c(ccc2n1)NCCC3 | 734 nM
NC(=O)c1cccc(C(=O)Nc2cccc(-c3cccc(-c4nc5cc(C(F)(F)F)ccc5[nH]4)c3)c2)c1 | 126 nM
CN(/N=C/C=C/c1ccc(Cl)cc1)c1nc(NCCc2ccc(O)cc2)nc(N2CCNCC2)n1 | 873 nM
Cc1nc(-c2cccc(Nc3nccc(NCC(O)c4cccc(F)c4)n3)c2)cs1 (stereo not given) | 699 nM
COc1ccc(CCNCCCCCNCCCc2ccc(Cl)cc2)cc1OC | 808 nM
Cc1ccc2nc3c(cc(C(=O)NCc4ccccc4)c(=N)n3CCCn3ccnc3)c(=O)n2c1 | 993 nM
CC[C@H]1CN2CC[C@@H]1C[C@H]2[C@H](O)c1ccnc2ccc(OC)cc12 | 225 nM
COc1ccc(CNCc2cccc(-c3csc(-c4nc5ccccc5[nH]4)c3)c2)cc1 | 645 nM
Fc1ccc(CNc2ccc3ncc(-c4cccnc4)n3n2)cc1 | 928 nM
NC(=O)COc1c(C2CCN(CCN3CCC(CNC(=O)c4ccc(-c5ccc(C(F)(F)F)cc5)cc4)CC3)CC2)ccc2c1CCCC2 | 969 nM
COc1ccc(C(=O)CCC(=O)N(Cc2ccc(-c3ccc(CNCCc4ccc(S(C)(=O)=O)cc4)cn3)cc2)C2CCN(Cc3ccccc3)CC2)cc1F | 437 nM
COc1ccc(NS(=O)(=O)c2ccc(C(=O)Nc3ccc(OC(F)(F)F)cc3)cc2)cc1N1CCN(CC2CC2)CC1 | 1000 nM
COc1ccc(-c2cnc3ccc(NCc4ccc(S(N)(=O)=O)cc4)nn23)cc1 | 796 nM
C[C@H](N[C@H]1CCCc2c1[nH]c1ccc(Br)cc21)c1ccccc1 | 222 nM
Oc1ccc(Cc2cc(Oc3c(I)cc(CCc4ncc[nH]4)cc3I)ccc2O)cc1 | 712 nM
O=C(Nc1ccc2c(c1)OCO2)NC1CCN(c2ccnc(Nc3ccc(F)cc3)n2)C1 (stereo not given) | 743 nM
C=Cc1ccccc1C1(O)CCN(CCCCNC(=O)c2ccc(-c3ccc(C#N)cc3)cc2)CC1 | 518 nM
O=C(NC1CCN(Cc2ccccc2O)C1)c1ccc(Cl)c(Cl)c1 (stereo not given) | 894 nM
O=C(/C=C/c1c(Cl)cccc1Cl)NC1CCC(CN2C3CCC2CC(c2c[nH]c4ccccc24)C3)CC1 (stereo not given) | 844 nM
COc1ccc2nc3cc(Cl)ccc3c(NCCN(C)C)c2c1 | 188 nM
COc1cc2ccccc2c(CON2C(=N)N=C(N)NC2(C)C)c1OC | 46.4 nM

SMILES | XC50
Cc1ccc(Nc2nccc(NCC(O)c3cccc(C)c3)n2)cc1 (stereo not given) | 1020 nM
COc1ccc(Nc2ncc3c(-c4cccc(NC(=O)Cc5cccc(F)c5)c4)c[nH]c3n2)cc1OC | 567 nM
CC(C)N1CCN(CCCNc2c3ccccc3nc3ccccc23)CC1 | 233 nM
CCN(CC)/C(=N/C(=N)NCc1cccc(Cl)c1)NCCCCCCN/C(=N\C(=N)NCc1cccc(Cl)c1)N(CC)CC | 206 nM
CC(C)n1ncc2c(C(=O)Nc3ccc(C#N)c(Cl)c3)cc(C3CC3)nc21 | 962 nM
O=C(Nc1ccc(F)cc1)c1nc2ccccc2nc1Cl | 1230 nM
CCCn1c(Sc2ccc(C#N)c([N+](=O)[O-])c2)nnc1-c1ccc(OC)cc1 | 865 nM
O=C(CC1CCCC1)N(CC1CCN(Cc2ccc(C(F)(F)F)cc2)CC1)c1ccc(N2CCOCC2)c(F)c1 | 432 nM
COc1ccc(-c2ccc(CNCc3ccc(F)cc3)cc2)cc1S(=O)(=O)NCCN1CCCC1 | 731 nM
Nc1cccc(CNCc2cccc(-c3cccc(-c4nc5ccccc5[nH]4)c3)c2)c1 | 615 nM
CCNc1cc(C(=O)N[C@@H](Cc2ccccc2)[C@H](O)CNC(C)(C)Cc2ccccc2)cc(N2CCCC2=O)c1 | 262 nM
CC(=O)Nc1ccc(C(=O)Nc2cccc(-c3ccc(-c4nc5ccccc5[nH]4)cc3)c2)cn1 | 206 nM
COc1cc(F)c2ncc(Cl)c(CCN3CCC(NCc4cc5c(cn4)OCCO5)CC3)c2c1 | 481 nM
COc1cc2c(cc1OC)C(C(=O)c1ccccc1)=NCC2 | 1090 nM
O=C(Cc1c[nH]cn1)Nc1cccc(-c2cccc(-c3nc4cc(F)ccc4[nH]3)c2)c1 | 777 nM
Cc1cc(-c2ccc3occ(CCN)c3c2)cnc1N | 877 nM
CN1CCN(c2ccc(Nc3nc(N)c4ccn(C5CCC5)c4n3)cc2)CC1 | 1220 nM
Cc1cc2ncn(-c3nccc(NCc4ccc(F)c(C)c4)n3)c2cc1C | 990 nM
CCCC1CCNC(C(O)c2ccnc3ccc(OC)cc23)C1 (stereo not given) | 426 nM
CCc1cn2c3c(cc(C(=O)N[C@@H](Cc4cccc(Cl)c4)[C@H](O)CNC4CC4)cc13)N(C)S(=O)(=O)CC2 | 145 nM
COc1ccccc1N1CCN(c2cccc3c2nc(-c2cncc(C#N)c2)n3CCNCc2ccccc2)CC1 | 706 nM
COc1ccc2ccc(F)c(CC(=O)N3CCOC(CNCc4cccc(-c5ccc(F)cc5)n4)C3)c2n1 (stereo not given) | 1010 nM
CCCN1CCN(c2cc(S(=O)(=O)Nc3ccc(C(=O)NCc4cccc(C(F)(F)F)c4)cc3)ccc2OC)CC1 | 1010 nM
O=c1cc(NCCCNCc2cccc3c2OC(F)(F)O3)[nH]c2ccccc12 | 947 nM

SMILES | XC50
NC(=O)C1CCN(Cc2ccc(-c3ccc(-c4nc5cc(C(F)(F)F)ccc5[nH]4)cc3)cc2)CC1 | 680 nM
C=CCN(c1ccc(OC)cc1)S(=O)(=O)c1ccc(Cl)c(C(=O)Nc2cccc(C#N)c2)c1 | 577 nM
CCNc1cc(C(=O)N[C@@H](Cc2ccccc2)[C@H](O)CNC2CCC(C(C)(C)C)CC2)cc(N2CCCC2=O)c1 (stereo not given in full) | 444 nM
Cc1cc(C2CCN(CCCCNC(=O)c3ccc(-c4ccc(C#N)cc4)cc3)CC2)c(C)cc1O | 854 nM
CCOC(=O)c1ccc(NC(=O)N[C@H]2CCN(CCCCCNC(=O)/C=C/c3ccc(Cl)c(Cl)c3)C2)cc1 | 735 nM
Cc1ccc(N2C(N)=NC(N)=NC2c2ccccc2)cc1 (stereo not given) | 56.6 nM
Cn1nc(C(F)(F)F)c(-c2ccc(F)cc2)c1NC(=O)Nc1ccc(F)cc1 | 754 nM
Cc1cc(=NN=Cc2ccc(F)cc2)c2cc(F)ccc2[nH]1 | 644 nM
CC(=O)c1cccc(NC(=O)NC2CCN(CCCCCNC(=O)/C=C/c3ccc(Cl)c(Cl)c3)CC2)c1 | 835 nM
CN1CCN(CCCCNc2c3ccccc3nc3ccccc23)CC1 | 704 nM
CCN(CCNC(=O)Cn1c(C)cc2cc([N+](=O)[O-])ccc21)c1cccc(C)c1 | 1010 nM
CC[C@H](NC(=O)c1c(CN2CCC(N3CCCCC3)CC2)c(-c2ccccc2)nc2cc(O)ccc12)c1ccccc1 | 1370 nM
Cc1ccc(O)cc1C[C@@H]1C(=O)CC[C@@]2(C)[C@H]1CC[C@]2(C)O | 957 nM
CC(C)C[C@@H](C(=O)Nc1ccc(Cc2ccc(NC(=O)[C@H](CC(C)C)N(C)C(=O)OC(C)(C)C)cc2)cc1)N(C)C(=O)OC(C)(C)C | 821 nM
COC(=O)c1ccccc1COc1ccc(CC2(NC(=O)[C@H](Nc3ccc(C#N)c4ccccc34)C(C)(C)C)CCCC2)cc1 | 856 nM
NC1=NC(c2ccccc2)(c2ccccn2)C(=O)N1CCCc1ccccc1 (stereo not given) | 1040 nM
N=C(N)c1ccc(C=CC(=O)NCC(O)CNC(=O)C=Cc2ccc(C(=N)N)cc2)cc1 (stereo not given) | 31.4 nM
COc1ccc(NC(=O)Nc2ccc(C)c(-c3ccc(C(=O)NCCN4CCCC4)cc3)c2)cc1 | 902 nM
Cc1c(CNCCCNc2nc3ccccc3[nH]2)sc(C(F)F)c1Br | 293 nM
COc1cccc(CN2CCN(C(c3ccccc3)c3ccccc3)CC2)c1O | 781 nM
Cn1cncc1C(=O)Nc1cccc(-c2ccc(-c3nc4cc(F)ccc4[nH]3)cc2)c1 | 735 nM
O=C(Nc1cccc(Cl)c1Cl)N1CCc2cc3nccc(N4CCN5CCC[C@H]5C4)c3cc21 | 1040 nM
Cc1cccc(CCNC(=O)c2cc(Br)cc(N3CCN(c4ccncc4)CC3)c2)c1 | 874 nM
